Patent publication US5314896A, “1,3-substituted cycloalkenes and cycloalkanes as central nervous system agents” (priority 1992, dated 1994)
Where two headings read alike, the source gives them in different places. Blank lines part the entries; values can stand above or below the compound they belong to.

How the values were obtained:
[1] = test system: Locomotor Activity in Mice; experiment: Inhibition of locomotor activity in mice; format: in vivo; settings: for ED50: Mus musculus
Experimental: (§1) The compounds of Formula I are valuable dopaminergic agents. […] Thus, the compounds of Formula I were tested for their ability to inhibit locomotor activity in mice and rats, a measure of antipsychotic activity, according to the assay described by J. R. McLean, et al, Pharmacology, Biochemistry and Behavior, Vol. 8, pages 97-99 (1978); for their ability to bind to dopamine receptors as measured by their inhibition of [^3 H]spiroperidol binding in a receptor assay described by D. Grigoriadis and P. Seeman, Journal of Neurochemistry, Vol. 44, pages 1925-1935 (1985); and for their ability to effect dopamine synthesis in rats according to the protocol described by J. R. Walters and R. H. Roth, Naunyn-Schmiedebero's Archives of Pharmacology, Vol. 296, pages 5-14 (1976). The above test methods are incorporated herein by reference. The data in the table show the dopaminergic activity of representative compounds of Formula I.

dopamine receptors = experiment: Inhibition of [^3 H] spiroperidol binding
Experimental: as §1

Brain Dopamine Synthesis = experiment: % effects on brain dopamine synthesis in rats; format: in vivo; settings: for change in vivo at 10 mg/kg: Rattus norvegicus
Experimental: as §1

[2] = ip, read-out: Inhibition of Locomotor Activity in Mice ED50, mice, IP (Table 2)
[3] = ip, read-out: Inhibition of Locomotor Activity in Mice ED50, mice, IP (Table 1)
[4] = ip, read-out: % Effects on Brain Dopamine Synthesis in Rats, rats, 10 mg/kg, IP (Table 1)
[5] = rats, 10 mg/kg, IP (Table 1), read-out: % Effects on Brain Dopamine Synthesis in Rats
[6] = mice, IP (Table 1), read-out: Inhibition of Locomotor Activity in Mice ED50

Compound: C1=C(c2ccccc2)CCC(N2CC=C(c3ccccc3)CC2)C1 (racemic) [A, (±)-1,2,3,6-tetrahydro-4-phenyl-1-(4-phenyl-3-cyclohexen-1-yl)pyridine, reference compound]
ED50 [1, 2]: 12.9 mg/kg
IC50 (dopamine receptors; Table 2): 1.08 µM

Compound: C1=C(c2ccccc2)CCC(CN2CC=C(c3ccccc3)CC2)C1 (racemic) [B, (±)-1,2,3,6-tetrahydro-4-phenyl-1-[(4-phenyl-3-cyclohexen-1-yl)methyl]pyridine, reference compound]
ED50 [1, 2]: 13.2 mg/kg
IC50 (dopamine receptors; Table 2): 1 µM

Compound: C1=C(c2ccccc2)CCC(CCN2CC=C(c3ccccc3)CC2)C1 (racemic) [Compound C, (±)-1,2,3,6-tetrahydro-4-phenyl-1-[2-(4-phenyl-3-cyclohexen-1-yl)ethyl]pyridine, reference compound]
ED50 [1, 2]: 5.8 mg/kg
IC50 (dopamine receptors; Table 2): 8.02 µM

Compound: C1=C(c2ccccc2)CCN(CCC2CCC=C(c3ccccc3)C2)C1 (racemic) [Compound E, (±)-1,2,3,6-tetrahydro-4-phenyl-1-[2-(3-phenyl-3-cyclohexen-1-yl)ethyl]pyridine, reference compound]
ED50 [1, 2]: 10.9 mg/kg

IC50 (dopamine receptors; Table 2): 11.2 µM
Compound: C1=C(c2ccccc2)CCC(CN2CCN(c3ccccn3)CC2)C1 (racemic) [Compound G, (±)-1-[(4-phenyl-3-cyclohexen-1-yl)methyl]-4-(2-pyridinyl)piperazine, reference compound]
ED50 ([1]; mice, IP (Table 2), read-out: Inhibition of Locomotor Activity in Mice ED50): 25.9 mg/kg

Compound: C1=C(c2ccccc2)CCN(C2CCC=C(c3ccccc3)C2)C1 (racemic) [D, (±)-1,2,3,6-tetrahydro-4-phenyl-1-(3-phenyl)-3-cyclohexen-1-yl)pyridine, reference compound]
ED50 [1, 2]: 30 mg/kg
IC50 (dopamine receptors; Table 2): 9.21 µM

Compound: C1=C(c2ccccc2)CCCC1CN1CC=C(c2ccccc2)CC1 (racemic) [Example 1a, (±)-1,2,3,6-Tetrahydro-4-phenyl-1-[(3-phenyl-2-cyclohexen-1-yl)methyl]pyridine]
ED50 [1, 3]: 2.5 mg/kg
change in vivo at 10 mg/kg (Brain Dopamine Synthesis; [4]): -34%
IC50 (dopamine receptors; Table 1): 0.42 µM

Compound: C1=C(c2ccccc2)CCN(CC2CCC=C(c3cccs3)C2)C1 (racemic) [Example 2, (±)-1,2,3,6-Tetrahydro-4-phenyl-1-[[3-(2-thienyl)-3-cyclohexen-1-yl]methyl]pyridine]
ED50 [1, 3]: 1.8 mg/kg
change in vivo at 10 mg/kg (Brain Dopamine Synthesis; [4]): -9%
IC50 (dopamine receptors; Table 1): 0.202 µM

Compound: C1=C(c2ccccc2)CCN(CC2C=C(c3cccs3)CCC2)C1 (racemic) [Example 2a, (±)-1,2,3,6-Tetrahydro-4-phenyl-1-[[3-(2-thienyl)-2-cyclohexen-1-yl]methyl]pyridine]
ED50 [1, 3]: 2.3 mg/kg
IC50 (dopamine receptors; Table 1): 0.4 µM

Compound: Fc1ccc(C2=CCCC(CN3CC=C(c4ccccc4)CC3)C2)cc1 (racemic) [Example 3, (±)-1-[[3-(4-Fluorophenyl)-3-cyclohexen-1-yl]methyl]-1,2,3,6-tetrahydro-4-phenylpyridine]
ED50 [1, 3]: 4.2 mg/kg
IC50 (dopamine receptors; Table 1): 0.09 µM

Compound: Fc1ccc(C2=CC(CN3CC=C(c4ccccc4)CC3)CCC2)cc1 (racemic) [Example 3a, (±)-1-[[3-(4-Fluorophenyl)-2-cyclohexen-1-yl]methyl]-1,2,3,6-tetrahydro-4-phenylpyridine]
ED50 [1, 3]: 2.9 mg/kg
change in vivo at 10 mg/kg (Brain Dopamine Synthesis; [4]): -41%
IC50 (dopamine receptors; Table 1): 1.07 µM

Compound: Fc1ccc(C2=CCCC(CN3CCN(c4ccccn4)CC3)C2)cc1 (racemic) [Example 5, (±)-1-[[3-(4-Fluorophenyl)-3-cyclohexen-1-yl]methyl]-4-(2-pyridinyl)piperazine]
ED50 [1, 3]: 1.2 mg/kg
change in vivo at 10 mg/kg (Brain Dopamine Synthesis; [5]): -58%
IC50 (dopamine receptors; Table 1): 0.143 µM

IC50 (dopamine receptors; Table 1): 0.279 µM
Compound: Fc1ccc(C2=CC(CN3CCN(c4ccccn4)CC3)CCC2)cc1 (racemic) [Example 5a, (±)-1-[[3-(4-Fluorophenyl)-2-cyclohexen-1-yl]methyl]-4-(2-pyridinyl)piperazine]
ED50 [1, 6]: 2.2 mg/kg
change in vivo at 10 mg/kg (Brain Dopamine Synthesis; [5]): -48%

IC50 (dopamine receptors; Table 1): 0.424 µM
Compound: C1=C(c2ccccc2)CC(CN2CCN(c3ccccc3)CC2)CC1.Cl.Cl (racemic) [Example 22, (±)-1-phenyl-4-[(3-phenyl-3-cyclohexen-1-yl)methyl]-piperazine dihydrochloride]
ED50 [1, 6]: 2.1 mg/kg

IC50 (dopamine receptors; Table 1): 0.354 µM
Compound: C1=C(c2ccccc2)CC(CN2CCN(c3ncccn3)CC2)CC1 (racemic) [Example 23, (±)-2-[4-[[3-phenyl-3-cyclohexen-1-yl)methyl]-1-piperazinyl]pyrimidine]
ED50 [1, 6]: 8.5 mg/kg

Compound: C1=C(c2ccccc2)CC(CN2CC=C(c3cccs3)CC2)CC1.Cl (racemic) [Example 24, (±)-1,2,3,6-tetrahydro-1-[(3-phenyl-3-cyclohexen-1-yl)methyl]-4-(2-thienyl)pyridine monohydrochloride]
ED50 [1, 3]: 1.5 mg/kg
IC50 (dopamine receptors; Table 1): 0.17 µM

IC50 (dopamine receptors; Table 1): 0.19 µM
Compound: C1=C(c2ccccc2)CC(CN2CCN(c3ccccn3)CC2)C1 (racemic) [Example 25, (±)-1-[(3-phenyl-3-cyclopenten-1-yl)methyl]-4-(2-pyridinyl)piperazine]
ED50 [1, 6]: 2.7 mg/kg
change in vivo at 10 mg/kg (Brain Dopamine Synthesis; [5]): -45%

Compound: C1=C(c2ccccc2)CCN(CC2CCC=C(c3c[nH]c4ccccc34)C2)C1 (racemic) [Example 26, (±)-3-[5-[(3,6-dihydro-4-phenyl-1(2H)-pyridinyl)methyl]-1-cyclohexen-1-yl]-1H-indole]
ED50 [1, 3]: 2 mg/kg
change in vivo at 10 mg/kg (Brain Dopamine Synthesis; [4]): -23%
IC50 (dopamine receptors; Table 1): 0.288 µM

Compound: C1=C(c2ccccc2)CCN(CC2CCC=C(c3ccccc3)C2)C1 (single isomer, unassigned; (+)) [Example 6, (+)-1,2,3,6-Tetrahydro-4-phenyl-1-[(3-phenyl-3-cyclohexen-1-yl)methyl]pyridine]
Inhibition of Locomotor Activity in Mice ED50 ([1]; mice, IP (Table 1)): 1.0 mg/kg
% Effects on Brain Dopamine Synthesis in Rats (Brain Dopamine Synthesis; rats, 10 mg/kg, IP (Table 1)): -50%
IC50 (dopamine receptors; Table 1): 0.227 µM

Compound: C1=C(c2ccccc2)CCN(CC2CCC=C(c3ccccc3)C2)C1 (single isomer, unassigned; (-)) [Example 6a, (-)-1,2,3,6-Tetrahydro-4-phenyl-1-[(3-phenyl-3-cyclohexen-1-yl)methyl]pyridine]
Inhibition of Locomotor Activity in Mice ED50 ([1]; mice, IP (Table 1)): 5.6 mg/kg
% Effects on Brain Dopamine Synthesis in Rats (Brain Dopamine Synthesis; rats, 10 mg/kg, IP (Table 1)): -34%
IC50 (dopamine receptors; Table 1): 0.42 µM

Compound: Cl.Clc1ccc(C2=CCC[C@@H](CN3CC=C(c4ccccc4)CC3)C2)cc1 [Example 7, (R)-1-[[3-(4-chlorophenyl)-3-cyclohexen-1-yl]methyl]-1,2,3,6-tetrahydro-4-phenylpyridine monohydrochloride]
ED50 [1, 3]: 4.4 mg/kg
change in vivo at 10 mg/kg (Brain Dopamine Synthesis; [4]): -18%

Compound: Clc1ccc(C2=C[C@H](CN3CC=C(c4ccccc4)CC3)CCC2)cc1 [Example 7a, (R)-1-[[3-(4-chlorophenyl)-2-cyclohexen-1-yl]methyl]-1,2,3,6-tetrahydro-4-phenylpyridine]
ED50 [1, 3]: 7.5 mg/kg
IC50 (dopamine receptors; Table 1): 2.32 µM

Compound: C1=C(c2ccccc2)CCN(C[C@@H]2CCC=C(c3cncnc3)C2)C1.Cl [Example 14, (R)-5-[5-[(3,6-dihydro-4-phenyl-1(2H)-pyridinyl)methyl]-1-cyclohexen-1-yl]pyrimidine monohydrochloride]
ED50 [1, 3]: 0.4 mg/kg
IC50 (dopamine receptors; Table 1): 0.438 µM

Compound: C1=C(c2cncnc2)CCC[C@H]1CN1CC=C(c2ccccc2)CC1.Cl.Cl [Example 14a, (R)-5-[3-[(3,6-dihydro-4-phenyl-1(2H)-pyridinyl)methyl]-1-cyclohexen-1-yl]pyrimidine dihydrochloride]
ED50 [1, 3]: 0.07 mg/kg

Compound: C1=C(c2ccsc2)CCC[C@H]1CN1CC=C(c2ccccc2)CC1 [Example 15, (R)-1,2,3,6-tetrahydro-4-phenyl-1-[[3-(3-thienyl)-2-cyclohexen-1-yl]methyl]pyridine]
ED50 [1, 3]: 1.3 mg/kg
IC50 (dopamine receptors; Table 1): 0.251 µM

Compound: CN(C)c1ccc(C2=C[C@H](CN3CC=C(c4ccccc4)CC3)CCC2)cc1 [Example 16a, (R)-4-[3-[(3,6-dihydro-4-phenyl-1(2H)-pyridinyl)methyl]-1-cyclohexen-1-yl]-N,N-dimethylbenzeneamine]
ED50 [1, 3]: 0.7 mg/kg
IC50 (dopamine receptors; Table 1): 0.66 µM

Compound: C1=C(c2cnc3ccccc3c2)CCC[C@H]1CN1CC=C(c2ccccc2)CC1 [Example 17a, (R)-3-[3-[(3,6-dihydro-4-phenyl-1(2H)-pyridinyl)methyl]-1-cyclohexen-1-yl]quinoline]
ED50 [1, 3]: 1.7 mg/kg
IC50 (dopamine receptors; Table 1): 1.11 µM

Compound: C1=C(c2ccccc2)CCN(C[C@@H]2CCC=C(c3ccc4c(c3)OCO4)C2)C1.Cl [Example 18, (R)-1-[[3-(1,3-benzodioxol-5-yl)-3-cyclohexen-1-yl]methyl]-1,2,3,6-tetrahydro-4-phenylpyridine monohydrochloride]
ED50 [1, 3]: 0.8 mg/kg
IC50 (dopamine receptors; Table 1): 0.432 µM

Compound: C1=C(c2ccccc2)CCN(C[C@@H]2CCC[C@@H](c3ccccc3)C2)C1.Cl [Example 20a, (1R-trans) 1,2,3,6-tetrahydro-4-phenyl-1-[(3-phenylcyclohexyl)methyl]pyridine monohydrochloride]
ED50 [1, 3]: 0.5 mg/kg
IC50 (dopamine receptors; Table 1): 0.874 µM

Compound: (R)-1,2,3,6-tetrahydro-1-[[3-(2-methylphenyl)-2-cyclohexen-1-yl]methyl]-4-phenylpyridine monohydrochloride compound with (R)-1,2,3,6-tetrahydro-1-[[3-(2-methylphenyl)-3-cyclohexen-1-yl]methyl]-4-phenylpyridine [Example 13]
Inhibition of Locomotor Activity in Mice ED50 ([1]; mice, IP (Table 1)): 2.3 mg/kg
